Source: patent US9624224B2, “Inhibitors of Bruton's tyrosine kinase” (Pharmacyclics LLC, priority 2013, dated 2017)

Target: T1, BTK (Homo sapiens, UniProt Q06187)
T1 construct: purified from insect cells as a full-length construct containing a N-terminal 6×-His tag; His6 (N); made in house; host or cells: insect cells (baculovirus, Sf21)
Assay: Btk in vitro inhibitory activity (TR-FRET, mobility shift or radiometric filter binding kinase assay)
Type: biochemical
Conditions: determined using one of the methods outlined in Example 47a, 47b, and 47c
Experimental: Btk kinase activity is determined using a time-resolved fluorescence resonance energy transfer (TR-FRET) methodology. Measurements are performed in a reaction volume of 50 μL using 96-well assay plates. […] The reaction is quenched by the addition of 1.2 equivalents of EDTA (relative to divalent cation) in 25 μL of 1× Lance buffer (Perkin-Elmer). Streptavidin-APC (Perkin-Elmer) and Eu-labeled p-Tyr100 antibody (Perkin-Elmer) in 1× Lance buffer are added in a 25 μL volume to give final concentrations of 100 nM and 2.5 nM, respectively, and the mixture is allowed to incubate for one hour. The TR-FRET signal is measured on a multimode plate reader with an excitation wavelength (λEx) of 330 nm and detection wavelengths (λEm) of 615 and 665 nm. Activity is determined by the ratio of the fluorescence at 665 nm to that at 615 nm. For each compound, enzyme activity is measured at various concentrations of compound. Negative control reactions are performed in the absence of inhibitor in replicates of six, and two no-enzyme controls are used to determine baseline fluorescence levels. Inhibition constants, Ki(app), ware obtained using the program BatchKi (Kuzmic et al. (2000), Anal. Biochem. 286:45-50). IC50s are obtained according to the equation: IC50={Ki(app)/(1+[ATP]/Km^ATP)}+[E]total/2;
For all kinases, [ATP]=Km^ATP, [Btk]total=0.5 nM and [Lck]total=6 nM.
Kinase activity is measured in vitro using electrophoretic mobility shift assay. The kinase reactions are assembled in a total volume of 25 μL in 384 well plates. […] The reaction is incubated for one hour and is quenched by the addition of 45 μL of termination buffer (100 mM HEPES, pH7.5, 0.01% Triton X-100, 30 mM EDTA). The terminated reactions are analyzed using 12 channel LabChip® 3000 microfluidic detection instrument (Caliper Life Sciences). The enzymatic phosphorylation of the peptide results in a change in net charge, enabling electrophoretic separation of product from substrate peptide. As substrate and product peptides are separated, two peaks of fluorescence are observed. Change in the relative fluorescence intensity of the substrate and product peaks is the parameter measured, reflecting enzyme activity. In the presence of an inhibitor, the ratio between product and substrate is altered: the signal of the product decreases, while the signal of the substrate increases.
Activity in each sample is determined as the product to sum ratio (PSR): P/(S+P), where P is the peak height of the product peptide and S is the peak height of the substrate peptide. For each compound, enzyme activity is measured at various concentrations (12 concentrations of compound spaced by 3× dilution intervals). Negative control samples (0%-inhibition in the absence of inhibitor) and positive control samples (100%-inhibition, in the presence of 20 mM EDTA) are assembled in replicates of four and are used to calculate %-inhibition values for each inhibitor at each concentration. Percent inhibition (Pinh) is determined using following equation: Pinh=(PSR0%−PSRinh)/(PSR0%−PSR100%)*100,
where PSRmh is the product sum ratio in the presence of inhibitor, PSR0% is the average product sum ration in the absence of inhibitor and PSR100% is the average product sum ratio in 100%-inhibition control samples;
The IC50 values of inhibitors are determined by 4 parameter sigmoidal dose-response model fitting of the inhibition curves (Pinh versus inhibitor concentration) using XLfit 4 software.
Human Btk kinase (Genbank accession # NP_000052) was purified from insect cells as a full-length construct containing a N-terminal 6×-His tag. Btk kinase activity was determined using a radiometric filter binding assay. Measurements are performed in a low μL reaction volume 384-well assay plates. […]

T1 sequence (Q06187 whole entry): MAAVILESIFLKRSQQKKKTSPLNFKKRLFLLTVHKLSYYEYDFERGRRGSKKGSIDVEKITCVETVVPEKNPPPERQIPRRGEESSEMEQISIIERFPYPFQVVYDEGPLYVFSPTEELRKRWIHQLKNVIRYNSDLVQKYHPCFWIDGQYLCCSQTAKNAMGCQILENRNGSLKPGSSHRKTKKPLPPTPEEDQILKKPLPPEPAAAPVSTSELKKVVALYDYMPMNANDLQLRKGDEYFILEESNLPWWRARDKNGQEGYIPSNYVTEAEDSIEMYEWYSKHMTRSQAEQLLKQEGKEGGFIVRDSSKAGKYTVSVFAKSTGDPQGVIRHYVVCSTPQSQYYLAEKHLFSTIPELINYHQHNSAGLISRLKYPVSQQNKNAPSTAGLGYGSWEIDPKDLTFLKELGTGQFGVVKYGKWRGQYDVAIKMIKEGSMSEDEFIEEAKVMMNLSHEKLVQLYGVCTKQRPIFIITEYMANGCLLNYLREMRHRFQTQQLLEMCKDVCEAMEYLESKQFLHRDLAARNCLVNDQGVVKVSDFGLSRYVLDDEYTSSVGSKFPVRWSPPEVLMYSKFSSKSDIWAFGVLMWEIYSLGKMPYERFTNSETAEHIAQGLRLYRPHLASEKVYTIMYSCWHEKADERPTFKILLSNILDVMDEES

`CCCc1ccnc(NC(=O)c2ccc(-c3nn([C@@H]4CCN(C(=O)/C=C/CN(C)C)C4)c4ncnc(N)c34)cc2)c1` [Example 33, (R,E)-4-(4-amino-1-(1-(4-(dimethylamino)but-2-enoyl)pyrrolidin-3-yl)-1H-pyrazolo[3,4-d]pyrimidin-3-yl)-N-(4-propylpyridin-2-yl)benzamide] and `CCCc1ccnc(NC(=O)c2ccc(-c3nn([C@@H]4CCCN(C(=O)/C=C/CN(C)C)C4)c4ncnc(N)c34)cc2)c1` [Example 43, (R,E)-4-(4-amino-1-(1-(4-(dimethylamino)but-2-enoyl)piperidin-3-yl)-1H-pyrazolo[3,4-d]pyrimidin-3-yl)-N-(4-propylpyridin-2-yl)benzamide] cannot be ordered by IC50: under 1 nM for the first, under 1 nM for the second.

`CC(C)c1ccnc(NC(=O)c2ccc(-c3nn([C@@H]4CCCN(C(=O)/C=C/CN(C)C)C4)c4ncnc(N)c34)cc2)c1` [Example 44, (R,E)-4-(4-amino-1-(1-(4-(dimethylamino)but-2-enoyl)piperidin-3-yl)-1H-pyrazolo[3,4-d]pyrimidin-3-yl)-N-(4-isopropylpyridin-2-yl)benzamide] and `CC(C)c1ccnc(NC(=O)c2ccc(-c3nn([C@@H]4CCCN(C(=O)/C=C/CN(C)C5CC5)C4)c4ncnc(N)c34)cc2)c1` [Example 39, (R,E)-4-(4-amino-1-(1-(4-(cyclopropyl(methyl)amino)but-2-enoyl)piperidin-3-yl)-1H-pyrazolo[3,4-d]pyrimidin-3-yl)-N-(4-isopropylpyridin-2-yl)benzamide] cannot be ordered by IC50: under 1 nM for the first, under 100 nM for the second.

`CN(C)C/C=C/C(=O)N1CCC[C@@H](n2nc(-c3ccc(C(=O)Nc4cc(C(F)(F)F)ccn4)cc3)c3c(N)ncnc32)C1` [Example 42, (R,E)-4-(4-amino-1-(1-(4-(dimethylamino)but-2-enoyl)piperidin-3-yl)-1H-pyrazolo[3,4-d]pyrimidin-3-yl)-N-(4-(trifluoromethyl)pyridin-2-yl)benzamide] and `CN(C/C=C/C(=O)N1CCC[C@@H](n2nc(-c3ccc(C(=O)Nc4cc(C(F)(F)F)ccn4)cc3)c3c(N)ncnc32)C1)C1CC1` [Example 36, (R,E)-4-(4-amino-1-(1-(4-(cyclopropyl(methyl)amino)but-2-enoyl)piperidin-3-yl)-1H-pyrazolo[3,4-d]pyrimidin-3-yl)-N-(4-(trifluoromethyl)pyridin-2-yl)benzamide] cannot be ordered by IC50: under 1 nM for the first, under 1 nM for the second.

`CN(C)C/C=C/C(=O)N1CCC[C@@H](n2nc(-c3ccc(C(=O)Nc4ccccn4)cc3)c3c(N)ncnc32)C1` [Example 40, (R,E)-4-(4-amino-1-(1-(4-(dimethylamino)but-2-enoyl)piperidin-3-yl)-1H-pyrazolo[3,4-d]pyrimidin-3-yl)-N-(pyridin-2-yl)benzamide] and `CN(C)C/C=C/C(=O)N1CCC[C@@H](n2nc(-c3ccc(C(=O)Nc4cc(C#N)ccn4)cc3)c3c(N)ncnc32)C1` [Example 45, (R,E)-4-(4-amino-1-(1-(4-(dimethylamino)but-2-enoyl)piperidin-3-yl)-1H-pyrazolo[3,4-d]pyrimidin-3-yl)-N-(4-cyanopyridin-2-yl)benzamide] cannot be ordered by IC50: under 1 nM for the first, under 1 nM for the second.

`CCCc1ccnc(NC(=O)c2ccc(-c3nn([C@@H]4CCCN(C(=O)/C=C/CN(C)C5CC5)C4)c4ncnc(N)c34)cc2)c1` [Example 37, (R,E)-4-(4-amino-1-(1-(4-(cyclopropyl(methyl)amino)but-2-enoyl)piperidin-3-yl)-1H-pyrazolo[3,4-d]pyrimidin-3-yl)-N-(4-propylpyridin-2-yl)benzamide] and `Cc1ccnc(NC(=O)c2ccc(-c3nn([C@@H]4CCCN(C(=O)/C=C/CN(C)C5CC5)C4)c4ncnc(N)c34)cc2)c1` [Example 35, (R,E)-4-(4-amino-1-(1-(4-(cyclopropyl(methyl)amino)but-2-enoyl)piperidin-3-yl)-1H-pyrazolo[3,4-d]pyrimidin-3-yl)-N-(4-methylpyridin-2-yl)benzamide] cannot be ordered by IC50: under 1 nM for the first, under 1 nM for the second.
